# Assay results as given in ChEMBL document CHEMBL5338751, “Discovery of the First-in-Class Intestinal Restricted FXR and FABP1 Dual Modulator ZLY28 for the Treatment of Nonalcoholic Fatty Liver Disease” (J Med Chem, 2023).
# Active and inactive are the calls of the source. The rule behind the calls is not given here.
# Assays:
# [1] = Metabolic stability in mouse liver microsomes assessed as parent compound remaining incubated for 1 hr by LC-MS analysis; type: ADME, Microsome; details: read-out: Stability
# [2] = Metabolic stability in Sprague-Dawley rat liver microsomes assessed as parent compound remaining incubated for 1 hr by LC-MS analysis; type: ADME, Microsome; details: read-out: Stability
# [3] = biological target: T1, Bile acid receptor (Homo sapiens, UniProt Q96RI1); assay: Agonist activity at FXR-LBD (unknown origin) using fluorescein-coactivator peptide incubated for 3 hrs by TR-FRET assay
# T1 sequence (Q96RI1 whole entry): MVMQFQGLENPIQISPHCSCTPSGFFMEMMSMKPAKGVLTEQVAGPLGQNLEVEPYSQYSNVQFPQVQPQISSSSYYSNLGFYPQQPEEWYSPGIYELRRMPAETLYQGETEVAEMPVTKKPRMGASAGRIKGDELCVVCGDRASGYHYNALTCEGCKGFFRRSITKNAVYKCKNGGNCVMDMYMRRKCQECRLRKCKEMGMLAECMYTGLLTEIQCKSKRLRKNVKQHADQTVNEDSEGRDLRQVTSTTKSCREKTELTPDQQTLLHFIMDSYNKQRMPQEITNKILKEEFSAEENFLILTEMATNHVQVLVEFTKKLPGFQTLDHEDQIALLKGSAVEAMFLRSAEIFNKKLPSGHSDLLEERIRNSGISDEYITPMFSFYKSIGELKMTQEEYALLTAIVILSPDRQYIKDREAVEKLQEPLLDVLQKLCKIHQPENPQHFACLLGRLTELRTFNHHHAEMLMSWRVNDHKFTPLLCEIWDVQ
# [4] = biological target: T2, Fatty acid-binding protein, liver (Homo sapiens) (UniProt P07148); assay: Displacement of 8-anilino-1-naphthalene-sulfonic acid from FABP1 (unknown origin) at 10 uM incubated for 3 mins by fluorescence based assay relative to control
# T2 sequence (whole entry): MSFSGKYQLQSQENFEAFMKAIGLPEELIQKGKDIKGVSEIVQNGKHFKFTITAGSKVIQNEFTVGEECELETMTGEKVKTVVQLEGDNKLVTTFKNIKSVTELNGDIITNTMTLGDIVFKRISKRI
# [5] = biological target: T3, Fatty acid-binding protein, liver (Homo sapiens, UniProt P07148); assay: Displacement of 8-anilino-1-naphthalene-sulfonic acid from FABP1 (unknown origin) incubated for 3 mins by fluorescence based assay
# T3 sequence (P07148 whole entry): T2 sequence (whole entry)
# [6] = biological target: T1, Bile acid receptor; assay: Agonist activity at FXR (unknown origin) expressed in human HepG2 cells co-transfected with human RXR assessed as luciferase activity incubated for 24 hrs by cell-based luciferase assay
# [7] = biological target: Oxysterols receptor LXR-alpha (Homo sapiens, UniProt Q13133); assay: Inhibition of Gal-DBD and NHRLBD fused LXRalpha (unknown origin) transfected in African green monkey CV-1 cells by luciferase assay; type: cell-based
# [8] = biological target: Oxysterols receptor LXR-beta (Homo sapiens, UniProt P55055); assay: Inhibition of Gal-DBD and NHRLBD fused LXRbeta (unknown origin) transfected in African green monkey CV-1 cells by luciferase assay; type: cell-based
# [9] = biological target: Thyroid hormone receptor beta (Homo sapiens, UniProt P10828); assay: Activation of pGAL4 fused THRbeta LBD (unknown origin) transfected in HEK293 cells cotransfected with pG5-Luc and pRL-TK incubated for 24 hrs by Renilla/Firefly based dual-glo luciferase assay; type: cell-based
# [10] = biological target: T4, Peroxisome proliferator-activated receptor alpha (Homo sapiens, UniProt Q07869); assay: Inhibition of pBIND-PPARalpha (unknown origin) transfected in HepG2 cells incubated for 18 hrs in presence of […] by dual luciferase reporter assay; type: cell-based
# T4 sequence (Q07869 whole entry): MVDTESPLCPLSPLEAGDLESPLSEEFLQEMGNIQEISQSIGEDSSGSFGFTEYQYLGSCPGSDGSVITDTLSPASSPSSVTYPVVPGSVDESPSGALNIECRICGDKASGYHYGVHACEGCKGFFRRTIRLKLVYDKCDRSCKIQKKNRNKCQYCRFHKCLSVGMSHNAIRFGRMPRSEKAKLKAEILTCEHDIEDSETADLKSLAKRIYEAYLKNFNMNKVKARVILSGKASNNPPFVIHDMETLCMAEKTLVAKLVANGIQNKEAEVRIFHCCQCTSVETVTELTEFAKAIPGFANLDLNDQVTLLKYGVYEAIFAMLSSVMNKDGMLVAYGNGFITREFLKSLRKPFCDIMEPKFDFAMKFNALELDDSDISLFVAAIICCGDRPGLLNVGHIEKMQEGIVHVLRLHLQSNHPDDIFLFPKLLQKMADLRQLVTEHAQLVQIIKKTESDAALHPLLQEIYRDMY
# [11] = Inhibition of PPARbeta/delta (unknown origin) transfected in HepG2 cells incubated for 18 hrs in presence of GW0742 by dual luciferase reporter assay; details: Homo sapiens, HepG2, 18 h
# [12] = biological target: T5, Peroxisome proliferator-activated receptor gamma (Homo sapiens, UniProt P37231); assay: Inhibition of PPARgamma (unknown origin) transfected in HEK293 cells incubated for 18 hrs in presence of rosiglitazone by dual luciferase reporter assay; type: cell-based
# T5 sequence (P37231 whole entry): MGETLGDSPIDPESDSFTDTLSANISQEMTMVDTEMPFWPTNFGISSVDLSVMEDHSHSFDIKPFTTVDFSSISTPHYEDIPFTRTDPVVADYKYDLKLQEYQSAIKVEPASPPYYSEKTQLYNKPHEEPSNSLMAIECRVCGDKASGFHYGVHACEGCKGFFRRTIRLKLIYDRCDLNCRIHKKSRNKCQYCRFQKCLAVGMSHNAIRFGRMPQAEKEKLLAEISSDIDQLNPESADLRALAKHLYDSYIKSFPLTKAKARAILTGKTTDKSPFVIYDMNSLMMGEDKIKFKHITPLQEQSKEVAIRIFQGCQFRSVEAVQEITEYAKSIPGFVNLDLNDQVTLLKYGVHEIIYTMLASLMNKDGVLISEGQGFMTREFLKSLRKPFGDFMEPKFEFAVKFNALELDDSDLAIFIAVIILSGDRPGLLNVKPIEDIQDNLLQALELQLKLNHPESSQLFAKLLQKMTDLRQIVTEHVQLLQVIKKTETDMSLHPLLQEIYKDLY
# [13] = system: Mus musculus; assay: Anti-NASH activity in western diet and CCl4-induced nonalcoholic steatohepatitis C57BL/6 mouse assessed as alleviation of hepatic steatosis at 20 mg/kg, po administered for 12 weeks starting from week 8 and change in dose for every 5 days; type: functional, organism-based; details: time 4.0 weeks
# [14] = system: Mus musculus; assay: Anti-NASH activity in western diet and CCl4-induced nonalcoholic steatohepatitis C57BL/6 mouse assessed as alleviation of lobular inflammation at 20 mg/kg, po administered for 12 weeks starting from week 8 and change in dose for every 5 days; type: functional, organism-based; details: time 4.0 weeks
# [15] = biological target: G-protein coupled bile acid receptor 1 (Homo sapiens, UniProt Q8TDU6); assay: Activation of TGR5 (unknown origin) transfected in human NCI-H716 cells assessed as increase in cAMP production incubated for 24 hrs by HTR-FRET assay; type: functional, cell-based
# [16] = Metabolic stability in Beagle dog liver microsomes assessed as parent compound remaining incubated for 1 hr by LC-MS analysis; type: ADME, Canis lupus familiaris, Microsome; details: read-out: Stability
# [17] = Metabolic stability in rhesus monkey liver microsomes assessed as parent compound remaining incubated for 1 hr by LC-MS analysis; type: ADME, Macaca mulatta, Microsome; details: read-out: Stability
# [18] = Metabolic stability in human liver microsomes assessed as parent compound remaining incubated for 1 hr by LC-MS analysis; type: ADME, Microsome; details: read-out: Stability
# [19] = biological target: Retinoic acid receptor gamma (Homo sapiens, UniProt P13631); assay: Activation of Gal-DBD and NHRLBD fused RARgamma (unknown origin) transfected in African green monkey CV-1 cells by luciferase reporter assay; type: cell-based
# [20] = biological target: Retinoic acid receptor alpha (Homo sapiens, UniProt P10276); assay: Activation of Gal-DBD and NHRLBD fused RARalpha (unknown origin) transfected in African green monkey CV-1 cells by luciferase reporter assay; type: cell-based
# [21] = biological target: Progesterone receptor (Homo sapiens, UniProt P06401); assay: Activation of Gal-DBD and NHRLBD fused PR (unknown origin) transfected in African green monkey CV-1 cells by luciferase reporter assay; type: cell-based
# [22] = biological target: Androgen receptor (Homo sapiens, UniProt P10275); assay: Activation of Gal-DBD and NHRLBD fused AR (unknown origin) transfected in African green monkey CV-1 cells by luciferase reporter assay; type: cell-based
# [23] = biological target: Mineralocorticoid receptor (Homo sapiens, UniProt P08235); assay: Activation of Gal-DBD and NHRLBD fused MR (unknown origin) transfected in African green monkey CV-1 cells by luciferase reporter assay; type: cell-based
# [24] = biological target: Fatty acid-binding protein, heart (Homo sapiens, UniProt P05413); assay: Displacement of 8-anilino-1-naphthalene-sulfonic acid from FABP3 (unknown origin) incubated for 3 mins by fluorescence based assay
# [25] = biological target: Fatty acid-binding protein, adipocyte (Homo sapiens, UniProt P15090); assay: Displacement of 8-anilino-1-naphthalene-sulfonic acid from FABP4 (unknown origin) incubated for 3 mins by fluorescence based assay
# [26] = Drug concentration in C57BL/6 mouse plasma at 20 mg/kg, po administered for 5 days and measured after 1 hr post final dose by LC-MS analysis; type: ADME, organism-based; details: time 5 day
# [27] = Drug concentration in C57BL/6 mouse liver at 20 mg/kg, po administered for 5 days and measured after 1 hr post final dose by LC-MS analysis; type: ADME, organism-based; details: time 5 day, read-out: Ct
# [28] = Drug concentration in C57BL/6 mouse ileum at 20 mg/kg, po administered for 5 days and measured after 1 hr post final dose by LC-MS analysis; type: ADME, organism-based; details: time 5 day, read-out: Ct
# Sequence of Oxysterols receptor LXR-alpha (Q13133 whole entry, the tested form may be a part): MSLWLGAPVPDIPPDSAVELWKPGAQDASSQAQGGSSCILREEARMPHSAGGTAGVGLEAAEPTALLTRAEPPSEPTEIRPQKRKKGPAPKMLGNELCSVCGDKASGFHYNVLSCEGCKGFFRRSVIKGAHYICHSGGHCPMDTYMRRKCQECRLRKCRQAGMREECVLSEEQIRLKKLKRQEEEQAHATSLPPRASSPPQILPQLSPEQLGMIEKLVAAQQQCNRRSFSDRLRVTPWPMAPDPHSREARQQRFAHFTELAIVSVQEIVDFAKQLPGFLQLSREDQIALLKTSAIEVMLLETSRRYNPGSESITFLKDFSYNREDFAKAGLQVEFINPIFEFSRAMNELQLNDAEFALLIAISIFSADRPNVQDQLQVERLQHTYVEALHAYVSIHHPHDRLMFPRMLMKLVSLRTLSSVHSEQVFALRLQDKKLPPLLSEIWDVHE
# Sequence of Oxysterols receptor LXR-beta (P55055 whole entry, the tested form may be a part): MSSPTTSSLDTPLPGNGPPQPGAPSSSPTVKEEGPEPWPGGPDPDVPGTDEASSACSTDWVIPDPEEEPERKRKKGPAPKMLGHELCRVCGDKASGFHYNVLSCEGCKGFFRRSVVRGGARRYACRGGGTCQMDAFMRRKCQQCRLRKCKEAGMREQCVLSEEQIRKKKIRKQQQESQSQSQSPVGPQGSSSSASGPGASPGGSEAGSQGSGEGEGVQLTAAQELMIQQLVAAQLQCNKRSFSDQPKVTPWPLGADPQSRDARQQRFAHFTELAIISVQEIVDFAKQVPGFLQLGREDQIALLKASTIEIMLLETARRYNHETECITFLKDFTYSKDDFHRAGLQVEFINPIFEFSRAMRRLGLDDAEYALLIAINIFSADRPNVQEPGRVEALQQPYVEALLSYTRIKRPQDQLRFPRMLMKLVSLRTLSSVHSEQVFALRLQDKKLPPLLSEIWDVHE
# Sequence of G-protein coupled bile acid receptor 1 (Q8TDU6 whole entry): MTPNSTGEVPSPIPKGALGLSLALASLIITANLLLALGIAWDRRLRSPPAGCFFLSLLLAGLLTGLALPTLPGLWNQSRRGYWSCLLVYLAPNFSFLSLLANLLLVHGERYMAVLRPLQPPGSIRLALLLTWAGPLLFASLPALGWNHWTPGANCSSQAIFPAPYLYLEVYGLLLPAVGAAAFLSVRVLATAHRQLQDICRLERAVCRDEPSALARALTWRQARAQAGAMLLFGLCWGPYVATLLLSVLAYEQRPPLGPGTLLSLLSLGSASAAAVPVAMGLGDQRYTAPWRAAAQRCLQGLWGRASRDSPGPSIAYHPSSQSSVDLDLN
# Sequence of Androgen receptor (P10275 whole entry, the tested form may be a part): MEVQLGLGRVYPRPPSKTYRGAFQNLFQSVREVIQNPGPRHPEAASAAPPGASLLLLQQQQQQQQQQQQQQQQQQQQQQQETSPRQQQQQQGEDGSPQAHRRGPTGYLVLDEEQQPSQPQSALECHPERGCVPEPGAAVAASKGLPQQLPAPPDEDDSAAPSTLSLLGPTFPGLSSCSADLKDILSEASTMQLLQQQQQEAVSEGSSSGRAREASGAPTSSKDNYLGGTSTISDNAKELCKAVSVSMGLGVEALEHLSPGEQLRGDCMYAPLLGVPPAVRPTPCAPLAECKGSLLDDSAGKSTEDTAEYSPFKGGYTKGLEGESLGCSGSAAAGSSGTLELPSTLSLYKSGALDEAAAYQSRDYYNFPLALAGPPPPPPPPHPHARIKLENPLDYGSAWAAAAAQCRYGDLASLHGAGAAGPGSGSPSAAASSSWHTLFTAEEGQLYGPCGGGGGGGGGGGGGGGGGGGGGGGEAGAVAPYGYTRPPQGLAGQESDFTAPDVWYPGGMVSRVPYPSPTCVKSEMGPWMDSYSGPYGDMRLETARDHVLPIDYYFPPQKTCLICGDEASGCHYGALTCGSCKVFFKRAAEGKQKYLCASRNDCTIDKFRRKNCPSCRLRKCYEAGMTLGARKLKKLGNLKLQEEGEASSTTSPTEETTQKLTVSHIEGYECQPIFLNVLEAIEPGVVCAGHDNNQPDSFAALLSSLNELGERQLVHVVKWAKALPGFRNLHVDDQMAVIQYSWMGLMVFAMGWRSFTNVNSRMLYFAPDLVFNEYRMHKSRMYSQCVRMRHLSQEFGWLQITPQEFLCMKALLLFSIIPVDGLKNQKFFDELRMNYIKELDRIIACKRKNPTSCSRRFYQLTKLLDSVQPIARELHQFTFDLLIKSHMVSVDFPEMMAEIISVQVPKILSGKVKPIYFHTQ
# Sequence of Retinoic acid receptor alpha (P10276 whole entry, the tested form may be a part): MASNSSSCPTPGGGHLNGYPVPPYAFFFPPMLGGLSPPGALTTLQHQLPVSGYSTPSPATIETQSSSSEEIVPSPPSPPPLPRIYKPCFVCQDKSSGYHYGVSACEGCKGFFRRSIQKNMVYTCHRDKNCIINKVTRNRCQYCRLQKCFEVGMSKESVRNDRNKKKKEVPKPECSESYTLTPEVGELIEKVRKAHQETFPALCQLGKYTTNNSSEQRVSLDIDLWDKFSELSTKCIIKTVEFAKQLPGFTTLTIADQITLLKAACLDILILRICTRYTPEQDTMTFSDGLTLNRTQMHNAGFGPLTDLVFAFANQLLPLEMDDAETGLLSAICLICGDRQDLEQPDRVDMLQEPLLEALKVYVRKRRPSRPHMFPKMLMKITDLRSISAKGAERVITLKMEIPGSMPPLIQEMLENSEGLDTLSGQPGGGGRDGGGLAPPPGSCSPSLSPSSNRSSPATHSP
# Sequence of Progesterone receptor (P06401 whole entry, the tested form may be a part): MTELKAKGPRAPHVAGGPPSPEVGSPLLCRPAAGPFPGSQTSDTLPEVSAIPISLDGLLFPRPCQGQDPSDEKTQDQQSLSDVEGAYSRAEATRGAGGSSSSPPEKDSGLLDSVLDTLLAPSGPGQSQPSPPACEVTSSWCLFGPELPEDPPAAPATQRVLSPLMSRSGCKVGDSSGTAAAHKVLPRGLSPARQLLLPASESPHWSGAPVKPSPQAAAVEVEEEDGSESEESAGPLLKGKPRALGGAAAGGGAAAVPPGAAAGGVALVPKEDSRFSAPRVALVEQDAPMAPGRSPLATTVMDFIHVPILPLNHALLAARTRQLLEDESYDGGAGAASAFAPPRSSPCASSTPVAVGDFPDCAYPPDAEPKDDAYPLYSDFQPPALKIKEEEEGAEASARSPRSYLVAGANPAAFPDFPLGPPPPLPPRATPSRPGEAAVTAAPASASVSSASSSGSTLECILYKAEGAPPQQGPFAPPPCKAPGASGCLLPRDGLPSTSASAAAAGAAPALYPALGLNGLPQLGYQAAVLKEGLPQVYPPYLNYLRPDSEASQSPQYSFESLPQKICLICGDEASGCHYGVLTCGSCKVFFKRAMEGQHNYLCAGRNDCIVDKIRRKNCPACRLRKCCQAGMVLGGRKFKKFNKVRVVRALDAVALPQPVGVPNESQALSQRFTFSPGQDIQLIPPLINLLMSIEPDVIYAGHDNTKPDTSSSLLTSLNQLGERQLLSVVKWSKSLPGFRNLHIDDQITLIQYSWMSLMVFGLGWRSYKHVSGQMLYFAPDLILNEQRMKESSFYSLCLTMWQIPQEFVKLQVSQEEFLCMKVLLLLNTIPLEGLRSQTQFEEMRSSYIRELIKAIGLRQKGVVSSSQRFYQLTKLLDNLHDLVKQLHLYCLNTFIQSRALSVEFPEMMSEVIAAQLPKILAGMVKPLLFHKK
# Sequence of Fatty acid-binding protein, heart (P05413 whole entry): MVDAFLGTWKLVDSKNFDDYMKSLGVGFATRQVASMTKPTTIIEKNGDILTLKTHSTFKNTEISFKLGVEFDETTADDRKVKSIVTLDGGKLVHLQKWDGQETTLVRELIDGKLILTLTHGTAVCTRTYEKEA
# Sequence of Retinoic acid receptor gamma (P13631 whole entry, the tested form may be a part): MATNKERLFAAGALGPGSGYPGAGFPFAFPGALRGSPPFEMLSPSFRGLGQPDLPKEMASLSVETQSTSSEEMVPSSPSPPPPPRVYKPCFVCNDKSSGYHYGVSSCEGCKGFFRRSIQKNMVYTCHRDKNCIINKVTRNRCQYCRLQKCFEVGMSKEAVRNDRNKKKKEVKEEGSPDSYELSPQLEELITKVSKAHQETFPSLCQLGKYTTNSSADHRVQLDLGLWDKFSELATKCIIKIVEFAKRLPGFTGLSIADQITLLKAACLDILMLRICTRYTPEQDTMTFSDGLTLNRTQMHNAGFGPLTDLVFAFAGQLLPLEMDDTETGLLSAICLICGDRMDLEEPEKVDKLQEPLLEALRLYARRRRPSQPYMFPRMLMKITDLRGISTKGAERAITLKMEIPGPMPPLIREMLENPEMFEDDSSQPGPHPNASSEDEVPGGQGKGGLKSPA
# Sequence of Fatty acid-binding protein, adipocyte (P15090 whole entry): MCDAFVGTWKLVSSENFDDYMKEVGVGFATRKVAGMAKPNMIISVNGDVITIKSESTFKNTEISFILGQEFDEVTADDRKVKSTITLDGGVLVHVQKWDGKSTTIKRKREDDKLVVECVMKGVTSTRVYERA
# Sequence of Thyroid hormone receptor beta (P10828 whole entry, the tested form may be a part): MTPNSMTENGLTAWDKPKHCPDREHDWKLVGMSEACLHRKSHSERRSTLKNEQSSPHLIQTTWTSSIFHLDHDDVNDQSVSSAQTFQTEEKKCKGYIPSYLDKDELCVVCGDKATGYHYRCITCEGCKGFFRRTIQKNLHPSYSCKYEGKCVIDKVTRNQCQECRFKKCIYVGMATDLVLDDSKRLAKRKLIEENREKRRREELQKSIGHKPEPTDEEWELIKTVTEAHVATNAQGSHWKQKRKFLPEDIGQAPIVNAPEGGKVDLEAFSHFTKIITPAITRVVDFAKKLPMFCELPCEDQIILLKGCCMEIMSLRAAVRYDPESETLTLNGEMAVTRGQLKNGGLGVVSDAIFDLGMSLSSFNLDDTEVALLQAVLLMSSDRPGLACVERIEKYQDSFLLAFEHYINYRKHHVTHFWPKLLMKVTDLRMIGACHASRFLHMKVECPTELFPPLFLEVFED
smiles,measurement,setting,value
CC(C)c1onc(-c2c(Cl)cccc2Cl)c1COc1ccc(-c2cccc(C3(C(=O)O)CC3)c2)cc1,remaining at 1 h,[1],35.6%
same,remaining at 1 h,[2],41.1%
CC(C)(C(=O)O)c1cccc(-c2ccc(OCc3c(-c4c(Cl)cccc4Cl)noc3C3CC3)cc2)c1,EC50,[3],0.811 µM
same,inhibition,[4],85.8%
same,IC50,[5],1.5 µM
O=C(O)CCc1ccc(-c2ccc(OCc3c(-c4c(Cl)cccc4Cl)noc3C3CC3)cc2)cc1,IC50,[5],1.4 µM
same,remaining at 1 h,[1],19.7%
same,remaining at 1 h,[2],26.1%
CCc1c(-c2ccccc2)c(-c2ccccc2)nn1-c1ccccc1-c1cccc(OCC(=O)O)c1,EC50,[3],> 10 µM
same,EC50,[6],> 10 µM
same,inhibition,[4],72.7%
same,IC50,[5],4 µM
same,EC50,[7],> 10 µM
same,EC50,[8],> 10 µM
same,EC50,[9],> 10 µM
same,IC50,[10],> 10 µM
same,IC50,[11],> 10 µM
same,IC50,[12],> 10 µM
CC(Oc1ccc(-c2ccc(OCc3c(-c4c(Cl)cccc4Cl)noc3C3CC3)cc2)cc1)C(=O)O (centres undefined),EC50,[3],0.32 µM
same,EC50,[6],3.51 µM
same,inhibition,[4],69.4%
same,IC50,[5],3.6 µM
O=C(O)Cc1cccc(N2CCC(OCc3c(-c4c(Cl)cccc4Cl)noc3C3CC3)CC2)c1,EC50,[3],> 10 µM
CC(C)c1onc(-c2c(Cl)cccc2Cl)c1COc1ccc(/C=C/c2cccc(C(=O)O)c2)c(Cl)c1,inhibition,[4],35.2%
same,IC50,[5],15.3 µM
CC[C@H]1[C@@H](O)[C@@H]2[C@H](CC[C@]3(C)[C@@H]([C@H](C)CCC(=O)O)CC[C@@H]23)[C@@]2(C)CC[C@@H](O)C[C@@H]12,Activity,[13],Active
same,Activity,[14],Active
CC(C)(Oc1ccc(-c2ccc(OCc3c(-c4c(Cl)cccc4Cl)noc3C3CC3)cc2)cc1)C(=O)O,IC50,[5],5.7 µM
O=C(O)Cc1ccc(-c2ccc(OCc3c(-c4c(Cl)cccc4Cl)noc3C3CC3)cc2Cl)cc1,IC50,[5],4.3 µM
O=C(O)C1(c2cccc(-c3cccc(OCc4c(-c5c(Cl)cccc5Cl)noc4C4CC4)c3)c2)CC1,EC50,[3],> 10 µM
O=C(O)Cc1ccc(-c2ccc(OCc3c(-c4c(Cl)cccc4Cl)noc3C3CC3)cc2)cc1,EC50,[15],> 10 µM
same,IC50,[5],2.9 µM
same,remaining at 1 h,[1],74.3%
same,remaining at 1 h,[2],86.8%
same,remaining at 1 h,[16],69.1%
same,remaining at 1 h,[17],64.5%
same,remaining at 1 h,[18],83.6%
same,EC50,[7],> 10 µM
same,EC50,[8],> 10 µM
same,EC50,[19],> 10 µM
same,EC50,[20],> 10 µM
same,EC50,[21],> 10 µM
same,EC50,[22],> 10 µM
same,EC50,[23],> 10 µM
same,IC50,[24],> 30 µM
same,IC50,[25],5.6 µM
same,concentration at 120 h,[26],2530 ng/mL
same,concentration at 120 h,[27],718 ng/g
same,concentration at 120 h,[28],158 ng/g
O=C(O)COc1cccc(-c2ccc(OCc3c(-c4c(Cl)cccc4Cl)noc3C3CC3)cc2)c1,EC50,[3],0.26 µM
same,EC50,[6],1.85 µM
same,inhibition,[4],67.1%
same,IC50,[5],3.8 µM
O=C(O)Cc1ccc(-c2cccc(OCc3c(-c4c(Cl)cccc4Cl)noc3C3CC3)c2)cc1,EC50,[3],> 10 µM
same,inhibition,[4],9.5%
O=C(O)CCc1cccc(-c2ccc(OCc3c(-c4c(Cl)cccc4Cl)noc3C3CC3)cc2)c1,IC50,[5],3.3 µM
O=C(O)COc1ccc(-c2ccc(OCc3c(-c4c(Cl)cccc4Cl)noc3C3CC3)cc2)cc1,IC50,[5],4.2 µM
same,remaining at 1 h,[1],56.8%
same,remaining at 1 h,[2],68.3%
